Values quoted from earlier work, collected in paper PMC4791286, “Puquitinib mesylate, an inhibitor of phosphatidylinositol 3-kinase p110δ, for treating relapsed or refractory non-Hodgkin's lymphoma” (Oncotarget, 2015).

Tests used:
advanced solid tumors = settings: human, in vivo; cited from earlier work
p110δ = system: p110δ; parameters: method as in PMID 20959606; settings: cited from earlier work
[1] = system: indolent non-Hodgkin lymphoma (iNHL); parameters: method as in PMID 24615776; settings: cited from earlier work
MCL = system: MCL; parameters: method as in PMID 24615778; settings: n = 40; cited from earlier work

Compound	Grade 3 AST abnormalities (advanced solid tumors)	IC50 (p110δ)	Asymptomatic grade 3 or greater serum transaminase elevations ([1]; iNHL, n = 64)	Response rate ([1]; marginal-zone lymphoma subtype)	Asymptomatic grade 3 or greater serum transaminase elevations (MCL)
C=CCN(/C=C1/C(=O)O[C@H](COC)[C@@]2(C)C1=C(O)C(=O)C1=C2[C@H](OC(C)=O)C[C@]2(C)C(=O)CC[C@@H]12)CC=C [PX866]	2 of 84 patients				
CC[C@H](Nc1ncnc2[nH]cnc12)c1nc2cccc(F)c2c(=O)n1-c1ccccc1 [Idelalisib]		[…]	25%	33%	35%
